Among the test systems are CAKI-1 renal; HCT-15 colon; HL-60(TB) leukemia; K-562 leukemia; LOX IMVI melanoma; NCI-H522 lung; U251 CNS; UACC-257 melanoma; UACC-62 melanoma; MDA-MB-231 breast.
What all share (test): DTP human tumour cell line panel, 48 h

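96-well plates; 48 h exposure; 5 concentrations. Endpoints by linear interpolation between flanking doses. Not reached: highest tested concentration assigned. At the GI50, growth is halved. TGI: total growth inhibition.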

What is called TGI is the concentration at which net growth stops. Consider `O=C(c1ccccc1)[C@H]1Nc2cnccc2C2c3ccccc3CC21` (stereo partly drawn), for which the TGI is over 73.6 µM in the test with CAKI-1 renal; 26.9 µM in the test on HCT-15 colon; 23.2 µM in the test on HL-60(TB) leukemia; 15.6 µM with K-562 leukemia; 3.55 µM with LOX IMVI melanoma; 8.56 µM in the test on NCI-H522 lung. For the same compound, the figures for the TGI in the test with U251 CNS, in the test with UACC-257 melanoma and with UACC-62 melanoma were 48.8 µM, 26.1 µM and over 58.8 µM, respectively.

As to `CC1=CCC[C@H]2[C@](C)(CC3=CC(=O)C4SCCSC4C3=O)[C@@H](C)CC[C@]12C` (stereo partly drawn), the TGI was 99.2 µM with CAKI-1 renal; 67.1 µM with HCT-15 colon; 96.2 µM with K-562 leukemia; 24.3 µM in the test on LOX IMVI melanoma; 46.7 µM in the test on MDA-MB-231 breast; 34.5 µM with U251 CNS. In addition, the figures for the TGI with UACC-257 melanoma and in the test with UACC-62 melanoma were 64 µM and 39.9 µM, respectively.

For the compound `CN1c2ccccc2C(=O)NC12CCN(CC1COc3ccccc3O1)CC2` (stereo not drawn), the TGI in the test on HL-60(TB) leukemia, in the test on K-562 leukemia, in the test with LOX IMVI melanoma, with U251 CNS, in the test on UACC-257 melanoma and in the test on UACC-62 melanoma was over 100 µM in each case.

As for `CCOC(=O)/C(=C/c1ccco1)P(=O)(OCC)OCC`, the TGI with CAKI-1 renal, with HCT-15 colon, in the test with HL-60(TB) leukemia, in the test on K-562 leukemia, in the test with LOX IMVI melanoma and in the test with NCI-H522 lung was over 100 µM in each case. Further, the TGI in the test on U251 CNS, in the test with UACC-257 melanoma and in the test with UACC-62 melanoma was over 100 µM in each case.

As for `COC(=O)C1=C(C)N2[C@H](C(=O)O)CS[C@@]2(C)[C@H](C(=O)OC)[C@H]1c1cccc([N+](=O)[O-])c1`, the TGI in the test on CAKI-1 renal, with HCT-15 colon, in the test with K-562 leukemia, in the test on MDA-MB-231 breast, in the test with NCI-H522 lung and with U251 CNS was over 100 µM in each case. Moreover, the TGI in the test with UACC-257 melanoma and in the test on UACC-62 melanoma was over 100 µM throughout.

With `NC(CCSCC(F)F)C(=O)O` (stereo not drawn), the TGI in the test on CAKI-1 renal, in the test on HCT-15 colon, with HL-60(TB) leukemia, with K-562 leukemia, in the test with LOX IMVI melanoma and in the test on NCI-H522 lung was over 100 µM throughout. The TGI with U251 CNS, with UACC-257 melanoma and in the test on UACC-62 melanoma was over 100 µM each time.

As for `C/C(=N\Nc1nc2ccccc2s1)c1cccnn1`, the TGI in the test with CAKI-1 renal is over 100 µM; in the test on HCT-15 colon it was over 100 µM; in the test on K-562 leukemia, over 100 µM; in the test on MDA-MB-231 breast it was 36.2 µM; in the test on NCI-H522 lung, 17.7 µM; in the test on U251 CNS, over 100 µM. For the same compound, the TGI with UACC-257 melanoma is over 100 µM; in the test with UACC-62 melanoma it was 20 µM.

In the case of `COC(=O)c1cc(C(=O)OC)cc(-c2ccc3c(c2)-c2nc4c(c(-c5ccc(OC)cc5)c2CC3)CCc2ccc(-c3cc(C(=O)OC)cc(C(=O)OC)c3)cc2-4)c1`, the TGI was over 100 µM in the test on CAKI-1 renal; over 100 µM with HCT-15 colon; 1.06 µM in the test with K-562 leukemia; over 100 µM with MDA-MB-231 breast; over 100 µM in the test with NCI-H522 lung; over 100 µM in the test with U251 CNS. Besides, the TGI with UACC-257 melanoma and with UACC-62 melanoma was over 100 µM each time.

As to `COc1cc(OC)c(C2c3cc4c(cc3OC(N3CCOCC3)C2C)OCO4)c(OC)c1` (stereo not drawn), the TGI in the test with HCT-15 colon, in the test with K-562 leukemia, in the test on LOX IMVI melanoma, in the test on NCI-H522 lung, in the test on UACC-257 melanoma and in the test with UACC-62 melanoma was over 100 µM each time.

With `Cc1cc(C)nc(NS(=O)(=O)c2ccc(Nc3c4ccccc4nc4c(C(=O)N5CCN(CCOS(C)(=O)=O)CC5)ccc(Cl)c34)cc2)n1`, the TGI with CAKI-1 renal, in the test on HCT-15 colon, in the test with HL-60(TB) leukemia, in the test on K-562 leukemia, in the test with U251 CNS and in the test on UACC-257 melanoma was over 100 µM in each case. This compound also yielded a TGI with UACC-62 melanoma of over 100 µM.

In general, GI50 refers to the concentration at which growth is held to half of that of the control. Consider `O=C1c2c(c3c4ccc(Br)cc4oc3c3[nH]c4ccccc4c23)C(=O)N1O`, for which the GI50 in the test with HCT-15 colon is 2.13 µM; with K-562 leukemia it was 2.07 µM; in the test on MDA-MB-231 breast, 2.48 µM; in the test with NCI-H522 lung, 1.07 µM; in the test on UACC-62 melanoma, 1.52 µM. Further, the TGI in the test on HCT-15 colon was over 100 µM; in the test on K-562 leukemia, over 100 µM; in the test on MDA-MB-231 breast it was over 100 µM; with NCI-H522 lung, over 100 µM; in the test with UACC-62 melanoma, 3.94 µM.

On to `CCC1(CC)C(=O)NC(=S)N=C1N`, for which the TGI in the test on HCT-15 colon, in the test on HL-60(TB) leukemia, in the test with K-562 leukemia, with LOX IMVI melanoma, with NCI-H522 lung and in the test on U251 CNS was over 100 µM in each case. Moreover, the TGI with UACC-257 melanoma and in the test on UACC-62 melanoma was over 100 µM in each case.

Turning to `N#CC(C#N)=Cc1cccc(Oc2ccccc2)c1`, the TGI with CAKI-1 renal is 50.4 µM; in the test on HCT-15 colon it was over 100 µM; in the test with HL-60(TB) leukemia, 47.3 µM; in the test with K-562 leukemia, over 95.4 µM; in the test with LOX IMVI melanoma, 43.6 µM; in the test with NCI-H522 lung, 51.2 µM. Moreover, the concentration for total growth inhibition (TGI) worked out at 18.9 µM with U251 CNS, 28.1 µM in the test with UACC-257 melanoma and 53.3 µM with UACC-62 melanoma.

For the compound `COC(=O)/C(=N\NC(=S)NN)C(C(=O)C(=O)Nc1ccccc1C(N)=O)c1nc2ccccc2[nH]c1=O` (stereo not drawn), the TGI with CAKI-1 renal, in the test on HCT-15 colon, in the test with K-562 leukemia, with NCI-H522 lung, in the test with U251 CNS and with UACC-257 melanoma was over 100 µM throughout. In the test on UACC-62 melanoma, this compound came in with a TGI of over 100 µM.

In the case of `O=C1CCn2c([nH]c3cccc4cccc2c43)=N1`, the TGI in the test on HCT-15 colon, in the test on HL-60(TB) leukemia, in the test with K-562 leukemia, with LOX IMVI melanoma, in the test on U251 CNS and in the test on UACC-257 melanoma was over 100 µM throughout. The compound further returned a TGI with UACC-62 melanoma of over 100 µM.

`O=C(NN1C(=O)CSC1c1ccc(Cl)c(Cl)c1)c1ccncc1` (stereo not drawn): the TGI in the test with CAKI-1 renal, in the test on HCT-15 colon, in the test with HL-60(TB) leukemia, in the test with K-562 leukemia, in the test on LOX IMVI melanoma and in the test on NCI-H522 lung was over 100 µM in each case. The TGI in the test with U251 CNS, in the test on UACC-257 melanoma and in the test with UACC-62 melanoma was over 100 µM throughout.

`CCOC(=O)C(C)NC(=O)N(C)C12CC3CC(CC(C3)C1)C2` (stereo not drawn): the TGI with CAKI-1 renal was over 404 µM; with HCT-15 colon, 490 µM; with HL-60(TB) leukemia, 272 µM; with K-562 leukemia it was over 500 µM; with LOX IMVI melanoma, 323 µM; in the test on NCI-H522 lung, over 451 µM. Further, the TGI was over 500 µM in the test with U251 CNS, 406 µM in the test on UACC-257 melanoma and over 474 µM in the test with UACC-62 melanoma.

As to `C=C1CC2C(=O)N(c3ccccc3)C(=O)C2CC1n1[nH]c(=O)n(Cc2ccccc2)c1=O` (stereo not drawn), the TGI with CAKI-1 renal, in the test with HCT-15 colon, in the test with HL-60(TB) leukemia, in the test on K-562 leukemia, in the test with LOX IMVI melanoma and in the test with NCI-H522 lung was over 100 µM in each case. In addition, the TGI in the test with U251 CNS, in the test with UACC-257 melanoma and in the test on UACC-62 melanoma was over 100 µM in each case.

As to `COC(=O)C(=O)C(C(=O)C(=O)Nc1cc([N+](=O)[O-])ccc1C#N)c1nc2ccccc2[nH]c1=O` (stereo not drawn), the TGI in the test with CAKI-1 renal, in the test with HCT-15 colon, in the test on HL-60(TB) leukemia, in the test on LOX IMVI melanoma, with NCI-H522 lung and in the test with UACC-257 melanoma was over 100 µM each time. Moreover, the TGI in the test on UACC-62 melanoma was over 100 µM.

`COC1OC2COC(C)(C)OC2C2OC(C)(C)OC12` (stereo not drawn): the TGI is 33.1 µM with CAKI-1 renal; over 100 µM with HCT-15 colon; over 100 µM in the test with K-562 leukemia; over 100 µM in the test with MDA-MB-231 breast; over 100 µM in the test on NCI-H522 lung; over 100 µM in the test with U251 CNS. For the same compound, the total growth inhibition concentration (TGI) in the test with UACC-257 melanoma and with UACC-62 melanoma was over 100 µM each time.

With `CC12CCC(C/C1=N\NC(N)=O)C2(C)C` (stereo not drawn), the TGI in the test with CAKI-1 renal, in the test on HCT-15 colon, in the test on HL-60(TB) leukemia, with K-562 leukemia, with LOX IMVI melanoma and in the test on NCI-H522 lung was over 100 µM each time. Besides, the TGI with U251 CNS, with UACC-257 melanoma and in the test on UACC-62 melanoma was over 100 µM each time.

Take `COc1ccc(/C=C/C(=O)c2sc(-n3nc(-c4ccccc4)cc3-c3ccccc3)nc2C)cc1OC`: the TGI in the test on CAKI-1 renal was over 100 µM; in the test with HCT-15 colon it was over 100 µM; with HL-60(TB) leukemia it was 62.2 µM; with K-562 leukemia it was 83.3 µM; with LOX IMVI melanoma, 96.6 µM; in the test on NCI-H522 lung it was 53.9 µM. In addition, the total growth inhibition concentration (TGI) in the test with U251 CNS was over 100 µM; in the test with UACC-257 melanoma, over 100 µM; in the test on UACC-62 melanoma, 52.2 µM.

Regarding `COc1cc(CCCOC2OC(COC3OCC(O)C(O)C3O)C(O)C(O)C2O)cc2cc(-c3ccc4c(c3)OCO4)oc12` (stereo not drawn), the TGI with CAKI-1 renal, in the test on HCT-15 colon, in the test with HL-60(TB) leukemia, in the test on K-562 leukemia, in the test on LOX IMVI melanoma and in the test with NCI-H522 lung was over 175 µM throughout. Further, the TGI with U251 CNS, with UACC-257 melanoma and with UACC-62 melanoma was over 175 µM each time.

The values above are taken from PubChem BioAssay (NCI).
